For series [1], the system named is Human immunodeficiency virus 1. Kind of series: In vitro antiviral activity against NNRTI-resistant DLVR-MF (P236L) HIV-1 variant. Type of series: functional, organism-based. Conditions: Human immunodeficiency virus 1, IIIB.
The test system of series [2] is Human immunodeficiency virus 1. Kind of series: Inhibition of p24 production in NNRTI-resistant DLVR-MF (P236L) HIV-1 variant at concentration 0.01 um. Type of series: functional.
The subject of series [3] is Human immunodeficiency virus 1. In words: Inhibition of p24 production in NNRTI-resistant L-697661R-IIIB (Y181C) HIV-1 variant at concentration 3 um. Type of series: functional.
Series [4] deals with Human immunodeficiency virus type 1 reverse transcriptase (Human immunodeficiency virus 1, UniProt Q72547, Y181C). Kind of series: Inhibitory activity against Y181C mutant HIV-1 reverse transcriptase.
Series [5] addresses Human immunodeficiency virus type 1 reverse transcriptase (Human immunodeficiency virus 1, UniProt Q72547). Kind of series: Inhibitory activity against wild type HIV-1 reverse transcriptase (WT-RT).
Series [6] deals with Human immunodeficiency virus type 1 reverse transcriptase (Human immunodeficiency virus 1, UniProt Q72547, P236L). In words: Inhibitory activity against P236L mutant HIV-1 reverse transcriptase.
For series [7], the system named is Human immunodeficiency virus 1. Kind of series: In vitro antiviral activity against NNRTI-resistant L-697661R-IIIB (Y181C) HIV-1 variant. Type of series: functional, organism-based. Conditions: Human immunodeficiency virus 1, IIIB.
Series [8] can be described thus: Pharmacokinetic parameter (CL/F ) was evaluated in Spargue-Dawley rat when given peroral at dose 30 mg/kg. Type of series: ADME, organism-based. Details: dose 30 mg/kg, route oral. The note with it: Sprague-Dawley, in vivo, po.
Series [9] in a line: Pharmacokinetic parameter (CL/F) was evaluated in Spargue-Dawley rat when given peroral at dose 80 mg/kg. Conditions: Sprague-Dawley, in vivo, po. Details: dose 80 mg/kg, route oral. Type of series: ADME, organism-based.
A short description of series [10]: Pharmacokinetic parameter (Cmax ) was evaluated in Spargue-Dawley rat when given intravenously at dose 15 mg/kg. Also on record: dose 15 mg/kg, route intravenous. The note with it: Sprague-Dawley, in vivo, iv. Type of series: ADME, organism-based.
Series [11] is described as follows: Pharmacokinetic parameter (Cmax ) was evaluated in Spargue-Dawley rat when given peroral at dose 30 mg/kg. Type of series: ADME, organism-based. Also on record: dose 30 mg/kg, route oral. Conditions: Sprague-Dawley, in vivo, po.
The nature of series [12]: Pharmacokinetic parameter (Cmax ) was evaluated in Spargue-Dawley rat when given peroral at dose 80 mg/kg. Type of series: ADME, organism-based. Also on record: dose 80 mg/kg, route oral. The note with it: Sprague-Dawley, in vivo, po.
The nature of series [13]: Pharmacokinetic parameter (Absolute oral bioavailability) was evaluated in Spargue-Dawley rat when given peroral at dose 30 mg/kg. Type of series: ADME, organism-based. The note with it: Sprague-Dawley, in vivo.
Series [14] is described as follows: Pharmacokinetic parameter (tmax ) was evaluated in Spargue-Dawley rat when given intravenously at dose 15 mg/kg. Type of series: ADME, organism-based. Details: dose 15 mg/kg, route intravenous. Conditions: Sprague-Dawley, in vivo, iv.
A short description of series [15]: Pharmacokinetic parameter (tmax) was evaluated in Spargue-Dawley rat when given peroral at dose 80 mg/kg. Type of series: ADME, organism-based. Also on record: dose 80 mg/kg, route oral. The note with it: Sprague-Dawley, in vivo, po.
Series [16] is described as follows: Apparent terminal disposition half-life (t1/2 ) was evaluated in Spargue-Dawley rat when given intravenously at dose 15 mg/kg. Conditions: Sprague-Dawley, in vivo, iv. Details: dose 15 mg/kg, route intravenous. Type of series: ADME, organism-based.
Series [17] is described as follows: Apparent terminal disposition half-life (t1/2 ) was evaluated in Spargue-Dawley rat when given peroral at dose 30 mg/kg. Type of series: ADME, organism-based. Details: dose 30 mg/kg, route oral. The note with it: Sprague-Dawley, in vivo, po.
A short description of series [18]: Apparent terminal disposition half-life (t1/2) was evaluated in Spargue-Dawley rat when given peroral at dose 80 mg/kg. The note with it: Sprague-Dawley, in vivo, po. Details: dose 80 mg/kg, route oral. Type of series: ADME, organism-based.
The nature of series [19]: Pharmacokinetic parameter (Vss ) was evaluated in Spargue-Dawley rat when given intravenously at dose 15 mg/kg. Details: dose 15 mg/kg, route intravenous. Conditions: Sprague-Dawley, in vivo, iv, read-out: Vss. Type of series: ADME, organism-based.
In series [20] the test system is Human immunodeficiency virus 1. In words: In vitro antiviral activity against NNRTI-resistant DLVR-IIIB (L100I) HIV-1 variant. The note with it: Human immunodeficiency virus 1, IIIB. Type of series: functional, organism-based.
For series [21], the system named is Human immunodeficiency virus 1. Kind of series: In vitro antiviral activity against NNRTI-resistant IIIB (WT) HIV-1 variant. Type of series: functional, organism-based. The note with it: Human immunodeficiency virus 1, IIIB.
For series [22], the system named is Human immunodeficiency virus 1. Kind of series: In vitro antiviral activity against NNRTI-resistant R88703R-IIIB (Y181C) HIV-1 variant. The note with it: Human immunodeficiency virus 1, IIIB. Type of series: functional, organism-based.
Series [23] has as its target Human immunodeficiency virus type 1 reverse transcriptase (Human immunodeficiency virus 1, UniProt Q72547, Y188H). In words: Inhibitory activity against Y188H mutant HIV-1 reverse transcriptase.
Series [24] concerns the target Human immunodeficiency virus type 1 reverse transcriptase (Human immunodeficiency virus 1, UniProt Q72547, E233V). Kind of series: Inhibitory activity against E233V mutant HIV-1 reverse transcriptase.
For series [25], the target named is Human immunodeficiency virus type 1 reverse transcriptase (Human immunodeficiency virus 1, UniProt Q72547, L100I). Kind of series: Inhibitory activity against L100I mutant HIV-1 reverse transcriptase.
A short description of series [26]: Pharmacokinetic parameter (Absolute oral bioavailability) was evaluated in Spargue-Dawley rat when given peroral at dose 80 mg/kg. Type of series: ADME, organism-based. Conditions: Sprague-Dawley, in vivo.
Series [27] in a line: Pharmacokinetic parameter (tmax ) was evaluated in Spargue-Dawley rat when given peroral at dose 30 mg/kg. Type of series: ADME, organism-based. Also on record: dose 30 mg/kg, route oral. The note with it: Sprague-Dawley, in vivo, po.

Regarding `C[C@@H](Sc1nc(N)cc(Cl)n1)c1cc2ccoc2cn1`, the IC50 in [1] was more than 10 nM; in series [4] it was more than 50000 nM; in series [5] it was 85 nM; in [6] it was 25 nM; in series [7] it was more than 3000 nM. The Inhibition in series [2] and in series [3] was 0% in each case.
Turning to `C[C@H](Sc1nc(N)cc(Cl)n1)c1cc2ccoc2cn1`, the CL/F in series [8] and in [9] was 7.1 mL/min/kg throughout. Also, the Cmax in series [10] turned out to be 123 µM; in series [11], 52 µM; in series [12], 103 µM. Also, the bioavailability in series [13] and in series [26] was 94% throughout. For the same molecule, the figures for the time of peak concentration (Tmax) in series [14], in series [15] and in series [27] were 1.98 min, 3.8 h and 1.4 h, respectively. Also, the half-life is 0.7 h in series [16], 0.78 h in series [17] and 1.5 h in [18]. Besides, the Vd in series [19] turned out to be 0.55 L/kg. The half-maximal inhibitory concentration (IC50) in series [20] turned out to be 70 nM; in [1], 8 nM; in [21], 1 nM; in [22], 170 nM; in series [4] it was 179 nM; in [23], 77 nM. In addition, the 50% inhibitory concentration (IC50) is 20 nM in [5]; 17 nM in series [24]; 39 nM in [25]; 22 nM in [6]; 1100 nM in series [7].
`CC(Sc1nc(N)cc(Cl)n1)c1cc2ccoc2cn1` (configuration not stated): the concentration for half-maximal inhibition (IC50) in series [20] was found to be 60 nM; in series [1], 10 nM; in [21] it was 2 nM; in [22], 170 nM; in [4], 360 nM; in series [23] it was 55 nM. The IC50 is 24 nM in series [5]; 44 nM in series [24]; 44 nM in [25]; 22 nM in [6]; 2400 nM in series [7].
For `CC(=O)c1ccccc1NC(C(N)=O)c1c(Cl)cccc1Cl` (configuration not stated), the IC50 in series [20] was 6500 nM; in [1], 80 nM; in series [21], 150 nM; in [22], more than 10000 nM; in series [7], more than 10000 nM.
For `CC(C)Nc1cccnc1N1CCN(C(=O)c2cc3cc(NS(C)(=O)=O)ccc3[nH]2)CC1` [DELAVIRDINE], the half-inhibitory concentration (IC50) is more than 10000 nM in [20], more than 10000 nM in series [1], 50 nM in series [21] and 1000 nM in series [22].
In the case of `CCc1cc(NCc2nc3c(Cl)ccc(Cl)c3o2)c(O)nc1C` [L-697661], the IC50 in series [20] was 4000 nM; in series [1], 430 nM; in series [21], 110 nM; in [22], 7700 nM; in series [7], more than 10000 nM.

The values above are taken from ChEMBL document CHEMBL1131332, “(-)-6-Chloro-2-[(1-furo[2, 3-c]pyridin-5-ylethyl)thio]-4-pyrimidinamine, PNU-142721, a new broad spectrum HIV-1 non-nucleoside reverse transcriptase inhibitor” (J Med Chem, 1998).
